In patent US5104859A, “Continuous administration of adenosine to reduce pulmonary vascular resistance” (priority 1990, dated 1992):
“Also recorded” adds a separate entry of the source.

How the values were obtained:
[1] = test system: systemic arterial blood pressure and central hemodynamics; experiment: Controlled hypotension in surgical patients without dipyridamole pretreatment; assay type: in vivo, human
Protocol: For this indication, adenosine typically is administered intravenously via the left basilic vein or via a central vein in an amount (or at a rate) sufficient to achieve the desired hypotensive effect.
The actual plasma levels of adenosine employed for controlled hypotension will vary, depending upon such factors as the particular patient, the age of the patient and the desired degree of hypotension. […] The hypotensive effect of adenosine was then studied upon this hypotensive dose of dipyridamole.
Subsequent to the tests described above, a 20 mM solution of adenosine in isotonic saline was administered to 50 surgical patients employing techniques similar to those described, except that pretreatment with dipyridamole was omitted.

[2] = set-up: species or system human; details: in vivo
Protocol: The mean hypotensive period was 32±8 min.

[3] = Plasma half-life of adenosine; assay type: in vivo
cardiac output = experiment: Cardiac output; assay type: in vivo, human; details: for cardiac output and heart work (words): intravenous infusion
From the text: This is in contrast to other vasodilators, such as sodium nitroprusside, which may reduce cardiac output, depending on the hemodynamic status of the patient. As a consequence, adenosine can be used to stimulate cardiac output in patients with low cardiac output states, due, for example, to heart surgery, infarct and the like.
For this application, effective dosages are intermediate those used for increased graft flow and controlled hypotension. Typically the effective dose is of the order of 40-80 ug/kg/per minute. The duration of treatment can be as long as required to support the heart.

[4] = Fredholm and Sollevi; cited from earlier work
[5] = Purine levels in arterial plasma before, during and after adenosine-induced controlled hypotension (HPLC); details: in vivo
Protocol: Blood gases were measured with appropriate electrodes for pH, PCO2, and PO2 (Radiometer, Copenhagen). The hemoglobin concentration was determined spectrophotometrically. Samples for the determination of adenosine and its metabolites were collected as described by Sollevi et al., Acta Physiol. Scand., 120: 171-76 (1984). Adenosine and inosine were purified and analyzed by HPLC as described by Fredholm and Sollevi., J. Physiol. (London), 313: 351-67 (1981). Hypoxanthine, xanthine, and uric acid were analyzed by HPLC according to the method of Schweinsberg and Loo., J. Chromatogr., 181: 103-7 (1980). Arterial levels of dipyridamole were determined by HPLC. J. Chromatogr., 162: 98-103 (1979). Blood lactate was measured according to Tfelt-Hansen and Siggard-Andersen. Scand. Clin. Lab. Invest., 27:15-19 (1971).
Measurements and blood samplings were performed immediately before hypotension, as late as possible during hypotension (1-5 min before terminating the infusion) and approximately 30 min after the hypotensive period.
Dipyridamole (5 mg. per ml) was infused iv (0.3-0.4 mg. per kg. over a period of 5-10 min) approximately 20 minutes prior to the induction of controlled hypotension. […] (See Pedersen, J. Chromatogr., 162: 98-103 (1979).
The infusion was started at a rate of 0.01 mg. per kg. per minute, which was doubled at 15 second intervals until the desired MABP level of 40-50 mmHg was reached. […] Serum creatinine was determined before and on two consecutive days after operation. The standard ECG was recorded the day before and the day after operation.
The statistical significance (control 1 vs. adenosine and control 1 vs. control 2) was determined by Student's t test for paired data. A P value of <0.05 was regarded as significant.
The purine levels of nine of the patients were determined prior to, during and after adenosine-induced controlled hypotension.

myocardial blood flow = details: 0.05 to about 0.1 mg/kg/min
From the text: Patients requiring abdominal vascular surgery, such as surgery for an aortic aneurysm, frequently also suffer from ischemic heart disease, or insufficient blood flow to the heart tissue, which may present undesirable complications in such surgery.
For such application, the rate of adenosine administration should be such that there is no more than a 10-20 per cent reduction in blood pressure.

cardiovascular system = details: bolus about 37.5 to 450 micrograms/kg; cited from earlier work
coronary bypass grafts = experiment: Coronary bypass graft flow and hemodynamics during coronary artery surgery
Protocol: It has been reported that coronary artery grafts occlude more frequently during the postoperative period when low graft-flow values are obtained during surgery. See Groudin et al, Circulation, 42: Suppl 3: 106-111 (1970).
In a study designed to investigate the use of adenosine to inhibit occlusion of coronary grafts, nine patients (age 45-65, all taking beta-blockers) were studied during coronary artery surgery. After premedication, morphine (10-15 mg) and scopolamine (0.4-0.6 mg), anesthesia was induced by fentanyl (30 mcg/kg.b.w.). Pancuronium (0.1 mg/kg b.w.) was given to facilitate endotracheal intubation. Anesthesia was maintained with fentanyl 0.5 mg/hour, N2 O (50%) in oxygen and droperidol (0.1 mg/kg b.w.). During bypass thiomebumal (5 mg/kg b.w.) was given. Nitrous oxide was not used after bypass. Extracorporeal circulation (ECC) was performed with a roller pump and a Shiley bubble oxyqenator primed with crystalloid solution. ECG (modified V5), an arterial line and a Swan-Ganz Catheter were used for monitoring and for hemodynamic measurements. Blood flow in bypass grafts (n=15, internal mammary and venous grafts), was measured with appropriate sized square wave electromagnetic flow probes (Nycotron 732). The study was performed 20-30 minutes after the termination of ECC. After a control period (5 min), adenosine (5.3 mg/ml. clinical solution) was continuously infused in a central vein in order to induce approximately 10% reduction of mean arterial blood pressure (about 30 to 50 ug per kg. per min.). Graft flow was continuously measured before and during a 10 or 30 minute infusion of adenosine and finally during the following 5 minute control period. Data are expressed as mean ±SEM and differences were tested with Student's paired t-test against the preceding period.

## Nc1ncnc2c1ncn2[C@@H]1O[C@H](CO)[C@@H](O)[C@H]1O [adenosine]
[1]; about 0.2 to about 0.35 mg/kg/min
  mean arterial blood pressure achieved: 40 to 50 mm Hg
[1]; as low as, cannula in left radial artery
  mean arterial blood pressure achieved without significant side effects: 40 millimeters of mercury
[1]; man 0.2 to 0.35 mg/kg/minute
  effective adenosine dose in man relative to dog: 30 to 50 times lower
[2]
  ECG the day after the operation: unchanged
[3]
  half-life: < 10 s
Cardiac output; 40-80 ug/kg/per minute
  cardiac output on termination of adenosine: frequently remains above the cardiac output prior to treatment
Cardiac output
  cardiac output and heart work (words): increase cardiac output without increasing heart work
Cardiac output; listed as Adenosine
  cardiac output and heart work (words): significantly increasing cardiac output without significantly increasing cardiac work
[4]
  plasma half-life: 10 to 20 s
[5]; human, iv
  concentration: 2450 ± 650 nM
[5]
  time for arterial adenosine levels to return to control values after termination of infusion: 3 to 9 min
Myocardial blood flow
  increase of cardiac output: 10 to 20%
  reduction of blood pressure: 10 to 20 per cent
Myocardial blood flow; words
  oxygen consumption: without change in oxygen consumption
Cardiovascular system
  vasodilating action of injectable bolus: little detectable vasodilating action
Coronary bypass grafts; 0.02 to 0.05 mg/kg/min, words
  graft blood flow, post-operative low dose: increase graft blood flow
Coronary bypass grafts; 30-50 ug per kg per min
  graft flow: doubled graft flow; also recorded: marked and reproducible increase in graft flow
  myocardial work: without increased myocardial work
Coronary bypass grafts; 49±4 ug/kg/minute
  arrhythmias: No arrhythmias were observed
  heart rate, mean pulmonary artery pressure, central venous pressure, stroke index and left ventricular stroke work index: remained essentially unchanged
  increase of cardiac output: 12%
  reduction of mean arterial pressure: 12%
Coronary bypass grafts; control after adenosine
  Cardiac output: 5.3 ± 0.3 L/min
  Left Ventricular Stroke Index: 0.49 ± 0.04 Joule/n^2
  Mean Arterial Pressure: 85 ± 3 mmHg
  Pulmonary Artery Pressure (mean): 19.9 ± 1.0 mmHg
  RAP (mean): 5.8 ± 0.7 mmHg
  Stroke Index: 39.6 ± 2.5 ml/m^2
  heart rate: 81 ± 6 beats/min.
Coronary bypass grafts; control after adenosine, n = 15
  graft flow: 39 ± 5 mL/min
Coronary bypass grafts; during adenosine
  Cardiac output: 5.6 ± 0.3 L/min
  Left Ventricular Stroke Index: 0.41 ± 0.03 Joule/n^2
  Mean Arterial Pressure: 74 ± 3 mmHg
  Pulmonary Artery Pressure (mean): 18.8 ± 1.2 mmHg
  RAP (mean): 5.3 ± 0.4 mmHg
  Stroke Index: 38.8 ± 2.0 ml/m^2
  heart rate: 82 ± 15 beats/min.
Coronary bypass grafts; during adenosine, n = 15
  graft flow: 77 ± 7 mL/min
Coronary bypass grafts; in vivo
  graft flow rate on termination of adenosine: restored to its original value
Coronary bypass grafts; post-operative low doses, words
  atrio-ventricular conductance at low dose: without significant effect on atrio-ventricular conductance
